Data on eight compounds can be found in paper PMC10053230, “Constituents of the Stem Bark of Symphonia globulifera Linn. f. with Antileishmanial and Antibacterial Activities” (Molecules, 2023).

Values after ≈ are worked out from the molar mass of the structure shown. Where two headings read alike, the source gives them in different places.

The subject of data set [1] is Raw 264.7 macrophage cells. Description: Cytotoxicity, Alamar blue assay. It counts as cell-based. To be noted: for Selectivity Index SI (=CC50/IC50): CC50 Raw 264.7 macrophages / IC50 L. donovani. On the procedure:
(§1) (2010) with little modifications. […] Test plates were incubated for 28 h at 28 °C, followed by the addition of 1 mg/mL resazurin. […] The cytotoxicity profile of the crude extract and compounds was assessed using the Alamar blue assay (Mosman, 1983) against Raw 264.7 macrophage cells.
Background: Resazurin is reduced to fluorescent resorufin, in cell work by metabolically active cells.

In data set [2] the test system is L. donovani NR-48822 promastigotes. Description: In vitro antileishmanial assay, resazurin colorimetric method. Type of data set: cell-based, Leishmania donovani. To be noted: 28 h at 28 °C, triplicate; for IC50: Leishmania donovani, read-out: Antileishmanial Activity IC50 ± SD. On the procedure: The antileishmanial activity on cultured L. donovani 1S (MHOM/SD/62/1S) promastigotes was evaluated using the resazurin colorimetric method as described by Siqueira-Neto et al. (2010) with little modifications. They were all assessed in triplicate at concentrations ranging from 100 to 0.16 µg/mL for the extract and 50–0.08 µg/mL for the compounds. Test plates were incubated for 28 h at 28 °C, followed by the addition of 1 mg/mL resazurin. The negative and positive controls were 0.1% DMSO and amphotericin B (10–0.016 µg/mL), respectively. The cytotoxicity profile of the crude extract and compounds was assessed using the Alamar blue assay (Mosman, 1983) against Raw 264.7 macrophage cells.

Data set [3] concerns Pseudomonas aeruginosa HM801. Description: Antibacterial broth microdilution (MIC). It counts as cell-based. On the procedure:
(§2) The minimum inhibitory concentration (MIC) of the samples was evaluated following the broth microdilution method as described by Eloff, with light modifications. The extracts, compounds, and reference drug were dissolved in DMSO-MHB. […] Gentamicin was used as the positive control. Briefly, one hundred microliters of Mueller Hinton Broth was added to all wells of the 96-well plate, and 100 µL of the compounds/extracts was introduced into the wells in the first row (A) and mixed thoroughly. The sample mixture (100 µL) was removed from the well from row A to perform a twofold serial dilution down the rows (B–H). The last 100 µL was discarded. Then, 100 µL of the inoculum was introduced into the corresponding wells. The final volume in each well was 200 µL. Each extract concentration was assayed in triplicate and each test was performed twice. After an incubation period of 18 h at 37 °C, 20 µL of Alamar Blue was added to each well. The plates were then re-incubated for 30 min at 37 °C. A blue color in the well was scored as ‘‘no bacterial growth”, while a pink color was scored as a ‘‘growth occurrence”. MIC values were read at those concentrations where a pronounced change in color formation was noticed (from blue to pink).
For orientation: Dilution methods test growth across graded concentrations, often in twofold steps.

Data set [4] has as its system Salmonella typhi CPC. Description: Antibacterial broth microdilution (MIC). To be noted: Salmonella enterica, read-out: Antibacterial Activity MIC, St. Type of data set: cell-based. The protocol: as §2
Data set [5] concerns S. aureus ATCC25923. Nature of the data set: Antibacterial broth microdilution (MIC). Type of data set: cell-based. To be noted: Staphylococcus aureus, read-out: Antibacterial Activity MIC, Sau. On the procedure: as §2
For data set [6], the system named is Klebsiella pneumoniae clinical isolate. Description: Antibacterial broth microdilution (MIC). Type of data set: cell-based. The settings on record: read-out: Antibacterial Activity MIC, Kpc. The protocol: as §2
The test system of data set [7] is S. enterica NR13555. Nature of the data set: Antibacterial broth microdilution (MIC). Type of data set: cell-based. To be noted: Salmonella enterica, read-out: Antibacterial Activity MIC, Se. The protocol:
as §2

Data set [8] has as its system Staphylococcus aureus ATCC43300. Nature of the data set: Antibacterial broth microdilution (MIC). It counts as cell-based. To be noted: read-out: Antibacterial Activity MIC, Sa. On the procedure: as §2
Data set [9] can be described thus: Cytotoxicity, Alamar blue assay. It counts as cell-based. To be noted: mouse; Raw 264.7 macrophage cells; read-out: Macrophages CC50 ± SD. The protocol:
as §1

Data set [10] has as its system K. pneumoniae NR41388. Nature of the data set: Antibacterial broth microdilution (MIC). Type of data set: cell-based, Klebsiella pneumoniae. On the procedure:
as §2

[11] abbreviates: Pseudomonas aeruginosa HM801, read-out: Antibacterial Activity MIC, Pa.
Where [12] appears, read: Klebsiella pneumoniae clinical isolate.

By IC50 is commonly meant the midpoint of a concentration-inhibition curve. The MIC is the lowest concentration found to suppress growth. In general, CC50 refers to the concentration that lowers cell viability or growth by half.

As to “1,5-dihydroxy-3-methoxyxanthone [Compound 10]”, in [1] (Raw 264.7 macrophage cells), the “Macrophages CC50 ± SD” value is over 20 µg/mL. Further, the “Antileishmanial Activity IC50 ± SD” value in data set [2] came out at 47.04 ± 1.67 µg/mL.

For `C[C@@H]1[C@H](O)[C@@H](C)/C=C/C=C/C=C/C=C/C=C/C=C/C=C/[C@H](O[C@@H]2O[C@H](C)[C@@H](O)[C@H](N)[C@@H]2O)C[C@@H]2O[C@](O)(C[C@@H](O)C[C@@H](O)[C@H](O)CC[C@@H](O)C[C@@H](O)CC(=O)O[C@H]1C)C[C@H](O)[C@H]2C(=O)O` [Amphotericin B, reference compound], the IC50 in data set [2] came to 0.048 µg/mL (≈ 0.0519 µM).

Regarding `C=C(C)CCC1CC2(CC=C(C)C)C(=O)C(=C(O)c3ccc(O)c(O)c3)C(=O)C(CC=C(C)C)(C2=O)C1(C)CCC=C(C)C` (stereo not shown) [Compound 1, guttiferone U], the MIC in data set [3] (setting [11]) was 3.9 µg/mL (≈ 6.47 µM); in data set [4] it was 3.9 µg/mL (≈ 6.47 µM); in data set [5] it was 3.9 µg/mL (≈ 6.47 µM); in data set [6] (setting [12]), 3.9 µg/mL (≈ 6.47 µM); in data set [7] it was 62.5 µg/mL (≈ 104 µM); in [8] it was 125 µg/mL (≈ 207 µM). Further, the half-maximal cytotoxic concentration (CC50) in data set [9] is 28.1 ± 5.72 µg/mL (≈ 46.5 µM). Also, in data set [1], the “Selectivity Index SI (=CC50/IC50)” value was determined as 2.17. The IC50 in [2] was 12.9 ± 1.11 µg/mL (≈ 21.4 µM). In [10], the “Antibacterial Activity MIC, Kp” value turned out to be 62.5 µg/mL.

With `CC(C)=CCCC(C)=CCCC(C)=CCCC1(C)CCC2=C(O1)C(C)(O)C(O)C2=O` (stereo not shown) [Compound 4, 12-farnesyl-6,7-dihydroxy-7-methyl-3,4,6,7-tetrahydrocyclopenta[b]pyran-5(2H)-one], the MIC in [3] (Pseudomonas aeruginosa, HM801, read-out: Antibacterial Activity MIC, Pa) turned out to be 31.2 µg/mL (≈ 74.9 µM); in [4] it was 31.2 µg/mL (≈ 74.9 µM); in data set [5], 62.5 µg/mL (≈ 150 µM); in data set [6] (Klebsiella pneumoniae), 31.2 µg/mL (≈ 74.9 µM); in [7], 125 µg/mL (≈ 300 µM); in [8] it was 500 µg/mL (≈ 1200 µM). The CC50 in [9] is over 20 µg/mL. Also, in data set [2], the IC50 was 14 ± 1.14 µg/mL (≈ 33.7 µM). Besides, the “Antibacterial Activity MIC, Kp” value in data set [10] is 62.5 µg/mL.

Regarding `COc1cc2c(=O)c3c(O)c4c(c(CC=C(C)C)c3oc2c(O)c1OC)OC(C)(C)C=C4` [Compound 6, gaboxanthone], the 50% cytotoxic concentration (CC50) in data set [9] was over 20 µg/mL. Also, the “Selectivity Index SI (=CC50/IC50)” value in [1] is over 1.25. Besides, in [2], the IC50 was determined as 16 ± 1.2 µg/mL (≈ 36.4 µM).

For the compound `COc1cc2c(=O)c3c(O)c4c(c(CC=C(C)C)c3oc2c(O)c1O)OC(C)(C)C=C4` [Compound 7, xanthone V2], the CC50 in data set [9] was over 20 µg/mL. In addition, in data set [1], the “Selectivity Index SI (=CC50/IC50)” value is reported as over 1.54. Further, in data set [2], the IC50 amounted to 12.9 ± 1.11 µg/mL (≈ 30.4 µM).

As for `CC1(C)C=Cc2c(cc3oc4c(O)c5c(cc4c(=O)c3c2O)C=CC(C)(C)O5)O1` [Compound 8, pyranojacareubin], the 50% cytotoxic concentration (CC50) in data set [9] is over 20 µg/mL. Moreover, the “Selectivity Index SI (=CC50/IC50)” value in data set [1] is given as over 1.54. Besides, the IC50 in [2] was 12.9 ± 1.11 µg/mL (≈ 32.9 µM).

As to `CNC(C)C1CCC(N)C(OC2C(N)CC(N)C(OC3OCC(C)(O)C(NC)C3O)C2O)O1` (stereo not shown) [Gentamycin, reference compound], the MIC in data set [3] (setting [11]) came to 0.048 µg/mL (≈ 0.101 µM); in data set [4], 0.048 µg/mL (≈ 0.101 µM); in data set [5] it was 0.03 µg/mL (≈ 0.0628 µM); in [6] (setting [12]), 0.048 µg/mL (≈ 0.101 µM); in [7] it was 0.07 µg/mL (≈ 0.147 µM); in [8], 0.07 µg/mL (≈ 0.147 µM).
